Assays:
humans = test: Clinical experience with sublingual apomorphine tablets in humans (efficacy, side effects)
clinical = conditions: human, in vivo; for Cmax: Mean
[1] = humans, 2 to 4 mg sublingual tablets, clinical experience

AUC(0-inf) (clinical; sc, 1 mg): 3.39 ng·h/mL | Tmax (clinical; sc, 1 mg): 20.4 min | Cmax (clinical; sc, 1 mg): 3.22 ng/mL | AUC(0-inf) (clinical; male, 2 mg): 1.23 ng·h/mL | Tmax (clinical; male, 2 mg): 44.4 min | cmax, Mean (clinical; male, 2 mg): 0.70 ng/mL | Cmax (clinical; male, 2 mg): ~0.7 ng/mL | AUC(0-inf) (clinical; male, 4 mg): 2.37 ng·h/mL | Tmax (clinical; male, 4 mg): 43.2 min | cmax, Mean (clinical; male, 4 mg): 1.25 ng/mL | Cmax (clinical; male, 4 mg): ~1.25 ng/mL | AUC(0-inf) (clinical; male, 5 mg): 2.92 ng·h/mL | Tmax (clinical; male, 5 mg): 40.8 min | cmax, Mean (clinical; male, 5 mg): 1.70 ng/mL | Cmax (clinical; male, 5 mg): ~1.7 ng/mL | AUC(0-inf) (clinical; male, 6 mg): 3.6 ng·h/mL | Tmax (clinical; male, 6 mg): 39.6 min | cmax, Mean (clinical; male, 6 mg): 1.91 ng/mL | Cmax (clinical; male, 6 mg): ~1.91 ng/mL
SMILES: CN1CCc2cccc3c2[C@H]1Cc1ccc(O)c(O)c1-3 [Apomorphine, (R)-5,6,6a,7-tetrahydro-6-methyl-4H-dibenzo-[de,g]quinoline-10,11-diol]
incidence of emesis (humans; [1]): 2% | incidence of nausea (humans; [1]): about 13% | tolerability in humans (humans; up to 8 mg of apomorphine tablets): well tolerated | side-effects in humans (humans; up to a 6 mg dose via sublingual tablet): minimal side-effects | efficacy in humans (humans; up to a 6 mg dose via sublingual tablet, sexual dysfunction): good efficacy
